# Experimental data from ChEMBL document CHEMBL1148995, “Antitumor agents from bohemic acid complex, VI. Schaunardimycin” (J Nat Prod, 1984).
# Key:
# L1210 [1] = assay: Antitumor activity against mouse L1210 cells implanted in CDF1 mouse assessed as median survival time at 3.2 mg/kg, ip qd for 1 to 5 days; type: functional; conditions: route intraperitoneal
# Mus musculus [2] = assay: Toxicity in mouse L1210 cells implanted CDF1 mouse assessed as survivors on day 5 at 0.2 mg/kg, ip qd for 1 to 5 days; type: organism-based; set-up: dose 0.2 mg/kg, route intraperitoneal; conditions: in vivo
# Mus musculus [3] = assay: Toxicity in mouse L1210 cells implanted CDF1 mouse assessed as average weight gain at 3.2 mg/kg, ip single dose on day 1; type: organism-based; set-up: dose 3.2 mg/kg, route intraperitoneal; conditions: in vivo
# L1210 [4] = assay: Antitumor activity against mouse L1210 cells implanted in CDF1 mouse at 1.6 mg/kg, ip qd for 1 to 5 days relative to control; type: functional; conditions: route intraperitoneal
# Mus musculus [5] = assay: Toxicity in mouse L1210 cells implanted CDF1 mouse assessed as average weight gain at 1.6 mg/kg, ip qd for 1 to 5 days; type: organism-based; set-up: dose 1.6 mg/kg, route intraperitoneal; conditions: in vivo
# Mus musculus [6] = assay: Toxicity in mouse L1210 cells implanted CDF1 mouse assessed as survivors on day 5 at 1.6 mg/kg, ip qd for 1 to 5 days; type: organism-based; set-up: dose 1.6 mg/kg, route intraperitoneal; conditions: in vivo
# L1210 [7] = assay: Antitumor activity against mouse L1210 cells implanted in CDF1 mouse at 0.4 mg/kg, ip single dose on day 1 relative to control; type: functional; conditions: route intraperitoneal
# Mus musculus [8] = assay: Toxicity in mouse L1210 cells implanted CDF1 mouse assessed as average weight gain at 12.8 mg/kg, ip single dose on day 1; type: organism-based; set-up: dose 12.8 mg/kg, route intraperitoneal; conditions: in vivo
# L1210 [9] = assay: Antitumor activity against mouse L1210 cells implanted in CDF1 mouse at 3.2 mg/kg, ip qd for 1 to 5 days relative to control; type: functional; conditions: route intraperitoneal
# Mus musculus [10] = assay: Toxicity in mouse L1210 cells implanted CDF1 mouse assessed as survivors on day 5 at 25.6 mg/kg, ip single dose on day 1; type: organism-based; set-up: dose 25.6 mg/kg, route intraperitoneal; conditions: in vivo
# Mus musculus [11] = assay: Toxicity in mouse L1210 cells implanted CDF1 mouse assessed as survivors on day 5 at 0.4 mg/kg, ip qd for 1 to 5 days; type: organism-based; set-up: dose 0.4 mg/kg, route intraperitoneal; conditions: in vivo
# Mus musculus [12] = assay: Toxicity in mouse L1210 cells implanted CDF1 mouse assessed as average weight gain at 0.8 mg/kg, ip single dose on day 1; type: organism-based; set-up: dose 0.8 mg/kg, route intraperitoneal; conditions: in vivo
# Mus musculus [13] = assay: Toxicity in mouse L1210 cells implanted CDF1 mouse assessed as survivors on day 5 at 1.6 mg/kg, ip single dose on day 1; type: organism-based; set-up: dose 1.6 mg/kg, route intraperitoneal; conditions: in vivo
# L1210 [14] = assay: Antitumor activity against mouse L1210 cells implanted in CDF1 mouse assessed as median survival time at 0.2 mg/kg, ip single dose on day 1; type: functional; conditions: route intraperitoneal
# Mus musculus [15] = assay: Toxicity in mouse L1210 cells implanted CDF1 mouse assessed as survivors on day 5 at 6.4 mg/kg, ip qd for 1 to 5 days; type: organism-based; set-up: dose 6.4 mg/kg, route intraperitoneal; conditions: in vivo
# L1210 [16] = assay: Antitumor activity against mouse L1210 cells implanted in CDF1 mouse assessed as median survival time at 12.8 mg/kg, ip single dose on day 1; type: functional; conditions: route intraperitoneal
# Mus musculus [17] = assay: Toxicity in mouse L1210 cells implanted CDF1 mouse assessed as average weight gain at 6.4 mg/kg, ip single dose on day 1; type: organism-based; set-up: dose 6.4 mg/kg, route intraperitoneal; conditions: in vivo
# L1210 [18] = assay: Antitumor activity against mouse L1210 cells implanted in CDF1 mouse assessed as median survival time at 1.6 mg/kg, ip qd for 1 to 5 days; type: functional; conditions: route intraperitoneal
# Mus musculus [19] = assay: Toxicity in mouse L1210 cells implanted CDF1 mouse assessed as survivors on day 5 at 0.4 mg/kg, ip single dose on day 1; type: organism-based; set-up: dose 0.4 mg/kg, route intraperitoneal; conditions: in vivo
# L1210 [20] = assay: Antitumor activity against mouse L1210 cells implanted in CDF1 mouse assessed as median survival time at 6.4 mg/kg, ip single dose on day 1; type: functional; conditions: route intraperitoneal
# L1210 [21] = assay: Antitumor activity against mouse L1210 cells implanted in CDF1 mouse at 12.8 mg/kg, ip single dose on day 1 relative to control; type: functional; conditions: route intraperitoneal
# L1210 [22] = assay: Antitumor activity against mouse L1210 cells implanted in CDF1 mouse at 6.4 mg/kg, ip qd for 1 to 5 days relative to control; type: functional; conditions: route intraperitoneal
# Mus musculus [23] = assay: Toxicity in mouse L1210 cells implanted CDF1 mouse assessed as average weight gain at 0.4 mg/kg, ip qd for 1 to 5 days; type: organism-based; set-up: dose 0.4 mg/kg, route intraperitoneal; conditions: in vivo
# L1210 [24] = assay: Antitumor activity against mouse L1210 cells implanted in CDF1 mouse assessed as median survival time at 0.8 mg/kg, ip single dose on day 1; type: functional; conditions: route intraperitoneal
# Mus musculus [25] = assay: Toxicity in mouse L1210 cells implanted CDF1 mouse assessed as survivors on day 5 at 0.8 mg/kg, ip qd for 1 to 5 days; type: organism-based; set-up: dose 0.8 mg/kg, route intraperitoneal; conditions: in vivo
# L1210 [26] = assay: Antitumor activity against mouse L1210 cells implanted in CDF1 mouse at 0.8 mg/kg, ip qd for 1 to 5 days relative to control; type: functional; conditions: route intraperitoneal
# L1210 [27] = assay: Antitumor activity against mouse L1210 cells implanted in CDF1 mouse assessed as median survival time at 0.8 mg/kg, ip qd for 1 to 5 days; type: functional; conditions: route intraperitoneal
# L1210 [28] = assay: Antitumor activity against mouse L1210 cells implanted in CDF1 mouse at 0.2 mg/kg, ip qd for 1 to 5 days relative to control; type: functional; conditions: route intraperitoneal
# Mus musculus [29] = assay: Toxicity in mouse L1210 cells implanted CDF1 mouse assessed as survivors on day 5 at 3.2 mg/kg, ip qd for 1 to 5 days; type: organism-based; set-up: dose 3.2 mg/kg, route intraperitoneal; conditions: in vivo
# Mus musculus [30] = assay: Toxicity in mouse L1210 cells implanted CDF1 mouse assessed as survivors on day 5 at 12.8 mg/kg, ip single dose on day 1; type: organism-based; set-up: dose 12.8 mg/kg, route intraperitoneal; conditions: in vivo
# Mus musculus [31] = assay: Toxicity in mouse L1210 cells implanted CDF1 mouse assessed as survivors on day 5 at 6.4 mg/kg, ip single dose on day 1; type: organism-based; set-up: dose 6.4 mg/kg, route intraperitoneal; conditions: in vivo
# L1210 [32] = assay: Antitumor activity against mouse L1210 cells implanted in CDF1 mouse assessed as median survival time at 1.6 mg/kg, ip single dose on day 1; type: functional; conditions: route intraperitoneal
# L1210 [33] = assay: Antitumor activity against mouse L1210 cells implanted in CDF1 mouse assessed as median survival time at 25.6 mg/kg, ip single dose on day 1; type: functional; conditions: route intraperitoneal
# Mus musculus [34] = assay: Toxicity in mouse L1210 cells implanted CDF1 mouse assessed as survivors on day 5 at 0.2 mg/kg, ip single dose on day 1; type: organism-based; set-up: dose 0.2 mg/kg, route intraperitoneal; conditions: in vivo
# L1210 [35] = assay: Antitumor activity against mouse L1210 cells implanted in CDF1 mouse at 0.4 mg/kg, ip qd for 1 to 5 days relative to control; type: functional; conditions: route intraperitoneal
# Mus musculus [36] = assay: Toxicity in mouse L1210 cells implanted CDF1 mouse assessed as average weight gain at 3.2 mg/kg, ip qd for 1 to 5 days; type: organism-based; set-up: dose 3.2 mg/kg, route intraperitoneal; conditions: in vivo
# Mus musculus [37] = assay: Toxicity in mouse L1210 cells implanted CDF1 mouse assessed as survivors on day 5 at 0.8 mg/kg, ip single dose on day 1; type: organism-based; set-up: dose 0.8 mg/kg, route intraperitoneal; conditions: in vivo
# Mus musculus [38] = assay: Toxicity in mouse L1210 cells implanted CDF1 mouse assessed as average weight gain at 0.4 mg/kg, ip single dose on day 1; type: organism-based; set-up: dose 0.4 mg/kg, route intraperitoneal; conditions: in vivo
# Mus musculus [39] = assay: Toxicity in mouse L1210 cells implanted CDF1 mouse assessed as survivors on day 5 at 3.2 mg/kg, ip single dose on day 1; type: organism-based; set-up: dose 3.2 mg/kg, route intraperitoneal; conditions: in vivo
# Mus musculus [40] = assay: Toxicity in mouse L1210 cells implanted CDF1 mouse assessed as average weight gain at 25.6 mg/kg, ip single dose on day 1; type: organism-based; set-up: dose 25.6 mg/kg, route intraperitoneal; conditions: in vivo
# L1210 [41] = assay: Antitumor activity against mouse L1210 cells implanted in CDF1 mouse at 1.6 mg/kg, ip single dose on day 1 relative to control; type: functional; conditions: route intraperitoneal
structure (smiles),measurement,setting,value
CC[C@@]1(O)C[C@H](O[C@H]2C[C@H](NC)[C@H](O[C@H]3C[C@H](O)[C@H](O)[C@H](C)O3)[C@H](C)O2)c2c(cc3c(c2O)C(=O)c2c(O)ccc(O)c2C3=O)[C@H]1C(=O)OC [SCHAUNARDIMYCIN],MST,L1210 [1],8 days
same,Activity,Mus musculus [2],Active
same,Activity,Mus musculus [3],3.2 g
same,T/C,L1210 [4],125%
same,weight gain,Mus musculus [5],3 g
same,Activity,Mus musculus [6],Active
same,T/C,L1210 [7],100%
same,Activity,Mus musculus [8],0.7 g
same,T/C,L1210 [9],133%
same,Activity,Mus musculus [10],Active
same,Activity,Mus musculus [11],Active
same,weight gain,Mus musculus [12],2.8 g
same,Activity,Mus musculus [13],Active
same,MST,L1210 [14],6 days
same,Activity,Mus musculus [15],Active
same,MST,L1210 [16],8 days
same,Activity,Mus musculus [17],2.5 g
same,MST,L1210 [18],7.5 days
same,Activity,Mus musculus [19],Active
same,MST,L1210 [20],7 days
same,T/C,L1210 [21],133%
same,T/C,L1210 [22],133%
same,weight gain,Mus musculus [23],2.6 g
same,MST,L1210 [24],6 days
same,Activity,Mus musculus [25],Active
same,T/C,L1210 [26],117%
same,MST,L1210 [27],7 days
same,T/C,L1210 [28],117%
same,Activity,Mus musculus [29],Active
same,Activity,Mus musculus [30],Active
same,Activity,Mus musculus [31],Active
same,MST,L1210 [32],6.5 days
same,MST,L1210 [33],8 days
same,Activity,Mus musculus [34],Active
same,T/C,L1210 [35],117%
same,Activity,Mus musculus [36],2.8 g
same,Activity,Mus musculus [37],Active
same,weight gain,Mus musculus [38],2.8 g
same,Activity,Mus musculus [39],Active
same,Activity,Mus musculus [40],-1.4 g
same,T/C,L1210 [41],108%
